The source of these data is ChEMBL document CHEMBL1201862, “PubChem BioAssay data set” (2004).

Each structure is given as a SMILES string. Activity calls are given as the source filed them. Bounds are passed on as bounds.

The target in assay [1] is SWI/SNF-related matrix-associated actin-dependent regulator of chromatin subfamily A member 2 (Homo sapiens, UniProt P51531). The assay is described as follows: Luminescence-based cell-based high throughput dose response assay to identify activators of the function of SWI/SNF related, matrix associated, actin dependent regulator of chromatin, subfamily a, member 2 (SMARCA2, BRM). Format: functional.

Assay [2] in a line: Counterscreen for activators of the function of SWI/SNF related, matrix associated, actin dependent regulator of chromatin, subfamily a, member 2 (SMARCA2, BRM): Luminescence-based cell-based high throughput dose response assay to identify non-selective compounds using the VP16 reporter assay. The format is functional. (A counterscreen serves to expose hits that act by an unwanted route or on another target.)

The nature of assay [3]: cytotoxicity dependent on PAX8, dose response, cell-based, plate reader, dry powder (AID 743049). The format is functional.
Assay [4] in a line: cytotoxicity in OVCAR4 cells, dose response, cytotoxicity control for PAX8 inhibitor project, cell-based, plate reader, dry powder, SA11 (AID 743150). Format: functional. The following applies: OVCAR-4.
Assay [5] is described as follows: cytotoxicity in OV-90 ovarian cancer cells, dose response, PAX8 inhibitor project, cell-based, plate reader, dry powder, SA8 (AID 743149). Format: functional.
Assay [6] is described as follows: NIH:OVCAR-3 ovarian cancer cell cytotoxicity, dose response, PAX8 inhibitor project, plate reader, dry powder samples (AID 743044). Format: functional, cell-based.
The nature of assay [7]: IOSE-T80 ovarian epithelial cell cytotoxicity, dose response, cytotoxicity control for PAX8 inhibitor project, plate reader, dry powder samples (AID 743045). The format is functional, cell-based.
The target of another assay is Paired box protein Pax-8 (Homo sapiens, UniProt Q06710). The assay is described as follows: inhibitors of PAX8-driven TPO luciferase reporter, dose response, RMG-I cells, cherry-pick (AID 687027).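 Note: luciferase reporter driven by Pax8 target thyroperoxidase promoter measured by SteadyGlo luminescence.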 The format is functional, cell-based. On the technique in general: A reporter such as luciferase makes a cellular process visible.
Assay [8] can be described thus: cytotoxicity in COV434 cells, dose response, cytotoxicity control for PAX8 inhibitor project, cell-based, plate reader, dry powder, SA7 (AID 743145). Format: functional.
The test system of a further assay is HEK293. The assay is described as follows: HEK293T cell cytotoxicity, dose response, cytotoxicity control, ATP luminescence, cherry-pick samples (AID 687005).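 Note: cells exposed to compound for 48 hours.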 The format is functional, cell-based. The following applies: Homo sapiens.
Assay [9] is described as follows: HEK293 Cytotoxicity Assay Measured in Cell-Based System Using Plate Reader - 7071-01_Inhibitor_Dose_CherryPick_Activity_Set2. Format: functional.
For the next assay, the system named is HeLa. The assay is described as follows: HeLa cell cytotoxicity, dose response, cytotoxicity control for MITF activator project, CellTiter-Glo luminescence, cherry-pick samples (AID 540259). Format: functional, cell-based. The conditions noted are these: Homo sapiens. A general note: Cellular ATP, detected with luciferase, serves as a proxy for viable cell number.

Assay [10] concerns the target FAD-linked sulfhydryl oxidase ALR (Homo sapiens, UniProt P55789). The assay is described as follows: inhibitors of human ALR sulfhydryl oxidase, dose response, biochemical, H2O2 detection, luminescence, cherry-pick (AID 493248).
Assay [11] is described as follows: HeLa cell cytotoxicity, dose response, cytotoxicity control for MgcRacGAP inhibitor project (AID 624300). Format: functional.
Assay [12] deals with T1, Methionyl-tRNA synthetase, putative (Trypanosoma brucei brucei, UniProt Q38C91).
T1 sequence (Q38C91 whole entry): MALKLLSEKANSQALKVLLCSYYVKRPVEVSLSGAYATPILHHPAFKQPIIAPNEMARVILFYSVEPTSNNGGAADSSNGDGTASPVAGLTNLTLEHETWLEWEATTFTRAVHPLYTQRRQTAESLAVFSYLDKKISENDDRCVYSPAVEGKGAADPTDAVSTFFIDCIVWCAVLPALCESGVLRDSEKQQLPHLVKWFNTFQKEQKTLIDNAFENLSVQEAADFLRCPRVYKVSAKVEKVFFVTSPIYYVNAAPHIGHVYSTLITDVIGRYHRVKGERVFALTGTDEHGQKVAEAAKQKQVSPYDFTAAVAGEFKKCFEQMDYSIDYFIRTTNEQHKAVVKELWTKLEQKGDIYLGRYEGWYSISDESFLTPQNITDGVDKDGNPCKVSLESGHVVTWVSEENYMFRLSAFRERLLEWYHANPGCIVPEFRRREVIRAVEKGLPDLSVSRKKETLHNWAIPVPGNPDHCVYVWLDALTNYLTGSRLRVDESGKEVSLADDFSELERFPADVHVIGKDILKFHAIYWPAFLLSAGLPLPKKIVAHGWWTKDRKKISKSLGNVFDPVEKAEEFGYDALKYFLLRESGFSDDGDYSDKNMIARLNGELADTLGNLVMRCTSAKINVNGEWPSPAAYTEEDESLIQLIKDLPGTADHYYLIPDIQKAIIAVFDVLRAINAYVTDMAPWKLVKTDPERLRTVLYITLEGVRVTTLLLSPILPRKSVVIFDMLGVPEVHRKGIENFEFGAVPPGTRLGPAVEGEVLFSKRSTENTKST
The format is functional, Trypanosoma brucei brucei strain 927/4 GUTat10.1.

A short description of assay [13]: Counterscreen for inhibitors of Trypanosoma brucei methionyl tRNA synthetase (MetRS): Luminescence-based cell-based high throughput dose response assay to identify compounds that are cytotoxic to Jurkat human T lymphocyte cells. Format: functional.
In assay [14] the target is T2, Rac GTPase-activating protein 1 (Homo sapiens, UniProt Q9H0H5).
T2 sequence (Q9H0H5 whole entry): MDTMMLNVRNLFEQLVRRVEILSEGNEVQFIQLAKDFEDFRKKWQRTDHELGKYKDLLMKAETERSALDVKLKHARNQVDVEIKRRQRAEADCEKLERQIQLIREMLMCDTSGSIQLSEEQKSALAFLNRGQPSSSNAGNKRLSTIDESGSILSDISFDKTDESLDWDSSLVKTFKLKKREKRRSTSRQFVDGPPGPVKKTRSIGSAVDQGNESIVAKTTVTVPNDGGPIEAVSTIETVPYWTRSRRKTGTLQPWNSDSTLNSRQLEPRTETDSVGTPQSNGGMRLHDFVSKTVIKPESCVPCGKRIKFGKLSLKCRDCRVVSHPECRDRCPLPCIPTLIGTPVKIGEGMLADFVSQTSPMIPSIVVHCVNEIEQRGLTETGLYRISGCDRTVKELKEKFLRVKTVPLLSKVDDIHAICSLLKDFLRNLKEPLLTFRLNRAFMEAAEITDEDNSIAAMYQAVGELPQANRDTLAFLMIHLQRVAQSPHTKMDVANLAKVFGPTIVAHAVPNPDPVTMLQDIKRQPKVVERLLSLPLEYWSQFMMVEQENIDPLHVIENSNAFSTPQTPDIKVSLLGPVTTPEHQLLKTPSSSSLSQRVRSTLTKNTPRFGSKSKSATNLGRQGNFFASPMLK
The assay is described as follows: MgcRacGAP GTPase-activating activity inhibitors, confirmation, biochemical, ADP Hunter fluorescence, primary and confirmatory (AID 624330). The format is functional.

In assay [15] the target is T1, Methionyl-tRNA synthetase, putative. Format: functional, Trypanosoma brucei brucei strain 927/4 GUTat10.1. The source holds these as a separate data set.

Sequence of SWI/SNF-related matrix-associated actin-dependent regulator of chromatin subfamily A member 2 (P51531 whole entry): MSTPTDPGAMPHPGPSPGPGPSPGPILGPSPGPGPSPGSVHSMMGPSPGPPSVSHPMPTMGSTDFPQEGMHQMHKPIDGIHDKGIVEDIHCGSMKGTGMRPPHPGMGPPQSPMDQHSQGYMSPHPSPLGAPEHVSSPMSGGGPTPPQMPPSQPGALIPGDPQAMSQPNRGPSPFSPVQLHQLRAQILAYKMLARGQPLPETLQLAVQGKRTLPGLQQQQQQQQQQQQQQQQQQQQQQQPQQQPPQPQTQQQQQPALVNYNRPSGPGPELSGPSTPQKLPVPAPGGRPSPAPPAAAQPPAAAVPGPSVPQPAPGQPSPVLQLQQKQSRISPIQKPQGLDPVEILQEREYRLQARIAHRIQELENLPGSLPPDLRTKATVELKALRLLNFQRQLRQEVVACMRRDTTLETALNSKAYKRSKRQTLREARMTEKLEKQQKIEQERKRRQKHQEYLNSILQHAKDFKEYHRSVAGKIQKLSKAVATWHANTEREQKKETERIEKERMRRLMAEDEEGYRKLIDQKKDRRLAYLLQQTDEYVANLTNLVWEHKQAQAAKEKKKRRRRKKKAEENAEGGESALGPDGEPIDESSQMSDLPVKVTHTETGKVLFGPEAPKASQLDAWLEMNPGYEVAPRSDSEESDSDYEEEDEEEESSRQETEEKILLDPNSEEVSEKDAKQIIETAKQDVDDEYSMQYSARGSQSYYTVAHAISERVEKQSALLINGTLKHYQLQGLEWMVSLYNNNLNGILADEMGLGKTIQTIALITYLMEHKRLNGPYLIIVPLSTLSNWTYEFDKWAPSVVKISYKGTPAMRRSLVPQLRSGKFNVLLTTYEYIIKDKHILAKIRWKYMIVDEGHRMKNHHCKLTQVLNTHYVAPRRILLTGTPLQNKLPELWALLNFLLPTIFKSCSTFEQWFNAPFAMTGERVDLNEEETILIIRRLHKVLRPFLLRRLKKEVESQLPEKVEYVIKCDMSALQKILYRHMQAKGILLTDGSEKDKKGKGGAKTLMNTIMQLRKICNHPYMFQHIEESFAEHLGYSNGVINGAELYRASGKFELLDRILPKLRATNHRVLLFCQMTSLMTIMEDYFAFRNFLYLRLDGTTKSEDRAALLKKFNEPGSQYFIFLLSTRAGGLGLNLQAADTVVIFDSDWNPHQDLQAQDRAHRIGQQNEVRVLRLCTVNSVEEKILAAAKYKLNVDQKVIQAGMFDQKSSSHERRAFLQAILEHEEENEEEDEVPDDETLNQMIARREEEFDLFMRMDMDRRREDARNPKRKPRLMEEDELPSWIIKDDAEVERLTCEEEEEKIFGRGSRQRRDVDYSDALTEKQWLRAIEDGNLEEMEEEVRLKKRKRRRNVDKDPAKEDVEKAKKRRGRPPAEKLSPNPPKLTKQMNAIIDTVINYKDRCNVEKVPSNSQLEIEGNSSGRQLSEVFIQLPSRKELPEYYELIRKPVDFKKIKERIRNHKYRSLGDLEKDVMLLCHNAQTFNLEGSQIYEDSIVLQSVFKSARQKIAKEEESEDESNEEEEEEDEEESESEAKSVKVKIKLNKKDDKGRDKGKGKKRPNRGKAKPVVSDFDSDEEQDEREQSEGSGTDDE
Sequence of FAD-linked sulfhydryl oxidase ALR (P55789 whole entry): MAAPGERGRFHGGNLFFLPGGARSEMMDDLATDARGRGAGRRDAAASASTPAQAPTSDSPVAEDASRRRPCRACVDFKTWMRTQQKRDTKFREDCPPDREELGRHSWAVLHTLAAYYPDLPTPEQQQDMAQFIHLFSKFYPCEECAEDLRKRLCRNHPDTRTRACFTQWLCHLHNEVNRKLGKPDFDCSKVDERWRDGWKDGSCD
Sequence of Paired box protein Pax-8 (Q06710 whole entry): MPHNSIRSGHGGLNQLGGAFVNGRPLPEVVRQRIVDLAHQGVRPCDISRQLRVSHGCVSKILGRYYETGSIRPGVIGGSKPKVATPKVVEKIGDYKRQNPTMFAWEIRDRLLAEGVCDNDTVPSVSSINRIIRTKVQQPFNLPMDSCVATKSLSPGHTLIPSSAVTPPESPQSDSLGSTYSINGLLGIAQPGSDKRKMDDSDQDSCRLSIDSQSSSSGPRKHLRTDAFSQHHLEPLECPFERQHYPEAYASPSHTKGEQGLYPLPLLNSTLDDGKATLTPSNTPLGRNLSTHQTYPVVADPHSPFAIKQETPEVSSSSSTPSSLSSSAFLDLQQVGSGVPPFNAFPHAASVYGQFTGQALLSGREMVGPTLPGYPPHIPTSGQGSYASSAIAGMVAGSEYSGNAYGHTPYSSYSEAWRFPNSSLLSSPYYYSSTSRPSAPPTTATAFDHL

For orientation: EC50 means the concentration giving half of the maximal effect. For `COc1ccc(/N=C/c2nc(-c3ccco3)oc2O)cc1`, the EC50 in assay [1] and in [2] was > 91.2 µM (inactive) in each case.

As usually defined, the AC50 is the concentration at which the activity in the assay is half-maximal. `Cc1ccc(-c2csc(NC3OC(=O)c4ccccc43)n2)cc1` (stereo not given): the AC50 in assay [3] was 13 µM (active); in assay [4], 17.3 µM (active); in assay [5] it was 23.1 µM (active); in assay [6], 28.3 µM (active); in assay [7], 33.7 µM (active); on Paired box protein Pax-8, 7.58 µM (active). For the same molecule, the AC50 in assay [8] is 0.0641 µM (active).

For `C[C@@H]1CCCCO[C@@H](CN(C)S(=O)(=O)c2ccccc2)[C@H](C)CN([C@@H](C)CO)C(=O)c2cc(NC(=O)Nc3ccc(F)cc3)ccc2O1`, the AC50 (with HEK293; in assay [9]) was 21.6 µM (active) in each case.

A word on the CC50: it is the concentration that lowers cell viability or growth by half. What is called IC50 is the concentration that gives 50% inhibition. `C(=N\Nc1nc2ccccc2[nH]1)/c1c[nH]c2ccccc12`: the results for the concentration at half-maximal activity (AC50) (in the assay on HeLa; in [10]) were 40 µM (active) and 0.309 µM (active), respectively. Moreover, the CC50 in [11] is 81.9 µM (active). Besides, the IC50 was 11.7 µM (inactive) in assay [12], 34.8 µM (inactive) in assay [13], 35.8 µM (active) in assay [14] and 32.2 µM (inactive) in assay [15].

As to `O=C(C[C@H]1CC[C@@H]2[C@H](COC[C@@H](O)CN2C(=O)c2cnccn2)O1)NCc1ccc(Oc2ccccc2)cc1`, the AC50 (in the assay on HEK293; in [9]) was 35.7 µM (active) in each case.
